Assay results reported in US12427157B2, “Methods for treatment of diseases involving acidic or hypoxic diseased tissues” (Cybrexa 1, Inc., priority 2018, dated 2025).
Residues, ends and D or L forms follow the SMILES beside them. *: point of attachment. X17 = C[C@@H](COC(=O)N1CCC[C@@H](c2ccc(-n3cc4cccc(C(N)=O)c4n3)cc2)C1)S*; X26 = C[C@H](COC(=O)N1CCC[C@@H](c2ccc(-n3cc4cccc(C(N)=O)c4n3)cc2)C1)S*; X21 = NC(=O)c1cccc2cn(-c3ccc([C@@H]4CCCN(C(=O)OCCS*)C4)cc3)nc12; X16 = C[C@H](COC(=O)N1CCC[C@]1(C)c1nc2c(C(N)=O)cccc2[nH]1)S*; X22 = C[C@]1(c2nc3c(C(N)=O)cccc3[nH]2)CCCN1C(=O)OCCS*

Biological target: PARP (Homo sapiens, UniProt P09874)
Assay: Enzymatic Assay 2: HT Universal Chemiluminescent PARP Assay of cleaved compounds;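 note: PARP reaction with activated DNA run 1 h at room temperature, product detected via streptavidin-HRP and luminescence endpoint reading on a plate reader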
Details: read-out: IC50 Enzymatic Assay 2; Examples cleaved per Example A (crude cleavage solution); R^8H starting materials as such

Sequence of PARP (P09874 whole entry): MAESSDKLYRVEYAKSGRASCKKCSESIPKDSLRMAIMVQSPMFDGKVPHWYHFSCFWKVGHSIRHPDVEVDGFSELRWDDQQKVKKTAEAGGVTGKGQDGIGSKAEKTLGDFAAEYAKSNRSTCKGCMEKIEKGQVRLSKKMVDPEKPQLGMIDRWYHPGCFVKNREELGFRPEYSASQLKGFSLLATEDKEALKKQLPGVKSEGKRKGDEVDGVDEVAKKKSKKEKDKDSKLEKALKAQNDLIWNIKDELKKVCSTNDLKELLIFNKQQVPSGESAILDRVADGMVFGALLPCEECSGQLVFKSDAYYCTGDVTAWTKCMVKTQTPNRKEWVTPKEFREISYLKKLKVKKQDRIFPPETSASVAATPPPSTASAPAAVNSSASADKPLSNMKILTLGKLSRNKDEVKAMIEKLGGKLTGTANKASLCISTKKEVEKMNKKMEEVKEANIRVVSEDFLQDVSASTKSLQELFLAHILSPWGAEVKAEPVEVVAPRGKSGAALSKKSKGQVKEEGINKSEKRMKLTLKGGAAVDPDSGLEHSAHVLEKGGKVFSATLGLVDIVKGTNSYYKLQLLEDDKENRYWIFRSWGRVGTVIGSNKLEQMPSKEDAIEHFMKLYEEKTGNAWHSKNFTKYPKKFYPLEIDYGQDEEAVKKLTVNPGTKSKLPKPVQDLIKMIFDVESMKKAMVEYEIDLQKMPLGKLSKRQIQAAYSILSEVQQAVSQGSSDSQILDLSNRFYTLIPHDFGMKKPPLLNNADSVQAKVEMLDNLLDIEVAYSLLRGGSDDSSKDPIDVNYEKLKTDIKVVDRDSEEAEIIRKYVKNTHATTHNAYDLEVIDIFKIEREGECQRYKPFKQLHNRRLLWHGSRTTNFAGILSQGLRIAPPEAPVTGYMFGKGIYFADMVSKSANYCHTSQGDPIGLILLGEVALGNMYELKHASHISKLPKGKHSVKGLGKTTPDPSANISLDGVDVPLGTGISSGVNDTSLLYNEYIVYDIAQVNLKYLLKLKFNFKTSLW

Row | SMILES | IC50 [nM]
1 | CC(C)C[C@H](NC(=O)[C@H](Cc1ccc(O)cc1)NC(=O)[C@H](C)NC(=O)[C@H](CCCNC(=N)N)NC(=O)[C@H](Cc1c[nH]c2ccccc12)NC(=O)[C@@H]1CCCN1C(=O)[C@H](CC(N)=O)NC(=O)[C@H](CCC(N)=O)NC(=O)[C@H](CC(=O)O)NC(=O)[C@H](CC(=O)O)NC(=O)[C@H](C)N)C(=O)N[C@@H](CC(=O)O)C(=O)N[C@@H](CC(C)C)C(=O)N[C@@H](CC(C)C)C(=O)N[C@@H](Cc1ccccc1)C(=O)N1CCC[C@H]1C(=O)N[C@H](C(=O)N[C@@H](CC(=O)O)C(=O)N[C@H](C(=O)N[C@@H](CC(C)C)C(=O)N[C@@H](CC(C)C)C(=O)N[C@@H](CC(C)C)C(=O)N[C@@H](CC(=O)O)C(=O)N[C@@H](CC(C)C)C(=O)N[C@@H](CC(C)C)C(=O)N[C@@H](Cc1c[nH]c2ccccc12)C(=O)N[C@@H](CC(=O)O)C(=O)N[C@@H](C)C(=O)N[C@@H](CC(=O)O)C(=O)N[C@@H](CCC(=O)O)C(=O)N[C@@H](CSS[C@@H](C)COC(=O)N1CCC[C@@H](c2ccc(-n3cc4cccc(C(N)=O)c4n3)cc2)C1)C(=O)NCC(=O)O)[C@@H](C)O)[C@@H](C)O [Example 46] | 3.7
2 | CC[C@H](C)[C@H](NC(=O)[C@@H]1CCCN1C(=O)[C@H](CC(N)=O)NC(=O)[C@H](CCC(N)=O)NC(=O)[C@H](CCC(=O)O)NC(=O)[C@H](C)N)C(=O)N[C@@H](Cc1ccc(O)cc1)C(=O)N[C@@H](Cc1c[nH]c2ccccc12)C(=O)N[C@@H](C)C(=O)N[C@@H](CCCNC(=N)N)C(=O)N[C@@H](Cc1ccc(O)cc1)C(=O)N[C@@H](C)C(=O)N[C@@H](CC(=O)O)C(=O)N[C@@H](Cc1c[nH]c2ccccc12)C(=O)N[C@@H](CC(C)C)C(=O)N[C@@H](Cc1ccccc1)C(=O)N[C@H](C(=O)N[C@H](C(=O)N1CCC[C@H]1C(=O)N[C@@H](CC(C)C)C(=O)N[C@@H](CC(C)C)C(=O)N[C@@H](CC(C)C)C(=O)N[C@@H](CC(C)C)C(=O)N[C@@H](CC(=O)O)C(=O)N[C@@H](CC(C)C)C(=O)N[C@@H](C)C(=O)N[C@@H](CC(C)C)C(=O)N[C@@H](CC(C)C)C(=O)N[C@H](C(=O)N[C@@H](CC(=O)O)C(=O)N[C@@H](C)C(=O)N[C@@H](CC(=O)O)C(=O)N[C@@H](CCC(=O)O)C(=O)N[C@@H](CSS[C@H](C)COC(=O)N1CCC[C@@H](c2ccc(-n3cc4cccc(C(N)=O)c4n3)cc2)C1)C(=O)NCC(=O)O)C(C)C)[C@@H](C)O)[C@@H](C)O [Example 47] (H-AEQNPIYWARYADWLFTTPLLLLDLALLVDADEC(X26)G-OH; N-terminus and C-terminus assumed) | 2.4
3 | CC[C@H](C)[C@H](NC(=O)[C@@H]1CCCN1C(=O)[C@H](CC(N)=O)NC(=O)[C@H](CCC(N)=O)NC(=O)[C@H](CCC(=O)O)NC(=O)[C@H](C)N)C(=O)N[C@@H](Cc1ccc(O)cc1)C(=O)N[C@@H](Cc1c[nH]c2ccccc12)C(=O)N[C@@H](C)C(=O)N[C@@H](CCCNC(=N)N)C(=O)N[C@@H](Cc1ccc(O)cc1)C(=O)N[C@@H](C)C(=O)N[C@@H](CC(=O)O)C(=O)N[C@@H](Cc1c[nH]c2ccccc12)C(=O)N[C@@H](CC(C)C)C(=O)N[C@@H](Cc1ccccc1)C(=O)N[C@H](C(=O)N[C@H](C(=O)N1CCC[C@H]1C(=O)N[C@@H](CC(C)C)C(=O)N[C@@H](CC(C)C)C(=O)N[C@@H](CC(C)C)C(=O)N[C@@H](CC(C)C)C(=O)N[C@@H](CC(=O)O)C(=O)N[C@@H](CC(C)C)C(=O)N[C@@H](C)C(=O)N[C@@H](CC(C)C)C(=O)N[C@@H](CC(C)C)C(=O)N[C@H](C(=O)N[C@@H](CC(=O)O)C(=O)N[C@@H](C)C(=O)N[C@@H](CC(=O)O)C(=O)N[C@@H](CCC(=O)O)C(=O)N[C@@H](CSS[C@@H](C)COC(=O)N1CCC[C@@H](c2ccc(-n3cc4cccc(C(N)=O)c4n3)cc2)C1)C(=O)NCC(=O)O)C(C)C)[C@@H](C)O)[C@@H](C)O [Example 48] (H-AEQNPIYWARYADWLFTTPLLLLDLALLVDADEC(X17)G-OH; N-terminus and C-terminus assumed) | 2.1
4 | CC[C@H](C)[C@H](NC(=O)[C@@H]1CCCN1C(=O)[C@H](CC(N)=O)NC(=O)[C@H](CCC(N)=O)NC(=O)[C@H](CCC(=O)O)NC(=O)[C@H](C)N)C(=O)N[C@@H](Cc1ccc(O)cc1)C(=O)N[C@@H](Cc1c[nH]c2ccccc12)C(=O)N[C@@H](C)C(=O)N[C@@H](CCCNC(=N)N)C(=O)N[C@@H](Cc1ccc(O)cc1)C(=O)N[C@@H](C)C(=O)N[C@@H](CC(=O)O)C(=O)N[C@@H](Cc1c[nH]c2ccccc12)C(=O)N[C@@H](CC(C)C)C(=O)N[C@@H](Cc1ccccc1)C(=O)N[C@H](C(=O)N[C@H](C(=O)N1CCC[C@H]1C(=O)N[C@@H](CC(C)C)C(=O)N[C@@H](CC(C)C)C(=O)N[C@@H](CC(C)C)C(=O)N[C@@H](CC(C)C)C(=O)N[C@@H](CC(=O)O)C(=O)N[C@@H](CC(C)C)C(=O)N[C@@H](C)C(=O)N[C@@H](CC(C)C)C(=O)N[C@@H](CC(C)C)C(=O)N[C@H](C(=O)N[C@@H](CC(=O)O)C(=O)N[C@@H](C)C(=O)N[C@@H](CC(=O)O)C(=O)N[C@@H](CCC(=O)O)C(=O)N[C@@H](CSSCCOC(=O)N1CCC[C@@H](c2ccc(-n3cc4cccc(C(N)=O)c4n3)cc2)C1)C(=O)NCC(=O)O)C(C)C)[C@@H](C)O)[C@@H](C)O [Example 49] (H-AEQNPIYWARYADWLFTTPLLLLDLALLVDADEC(X21)G-OH; N-terminus and C-terminus assumed) | 26
5 | CC(C)C[C@H](NC(=O)[C@H](Cc1ccc(O)cc1)NC(=O)[C@H](C)NC(=O)[C@H](CCCNC(=N)N)NC(=O)[C@H](Cc1c[nH]c2ccccc12)NC(=O)[C@@H]1CCCN1C(=O)[C@H](CC(N)=O)NC(=O)[C@H](CCC(N)=O)NC(=O)[C@H](CC(=O)O)NC(=O)[C@H](CC(=O)O)NC(=O)[C@H](C)N)C(=O)N[C@@H](CC(=O)O)C(=O)N[C@@H](CC(C)C)C(=O)N[C@@H](CC(C)C)C(=O)N[C@@H](Cc1ccccc1)C(=O)N1CCC[C@H]1C(=O)N[C@H](C(=O)N[C@@H](CC(=O)O)C(=O)N[C@H](C(=O)N[C@@H](CC(C)C)C(=O)N[C@@H](CC(C)C)C(=O)N[C@@H](CC(C)C)C(=O)N[C@@H](CC(=O)O)C(=O)N[C@@H](CC(C)C)C(=O)N[C@@H](CC(C)C)C(=O)N[C@@H](Cc1c[nH]c2ccccc12)C(=O)N[C@@H](CC(=O)O)C(=O)N[C@@H](C)C(=O)N[C@@H](CC(=O)O)C(=O)N[C@@H](CCC(=O)O)C(=O)N[C@@H](CSS[C@H](C)COC(=O)N1CCC[C@]1(C)c1nc2c(C(N)=O)cccc2[nH]1)C(=O)NCC(=O)O)[C@@H](C)O)[C@@H](C)O [Example 51] | 0.9
6 | CC(C)C[C@H](NC(=O)[C@H](Cc1ccc(O)cc1)NC(=O)[C@H](C)NC(=O)[C@H](CCCNC(=N)N)NC(=O)[C@H](Cc1c[nH]c2ccccc12)NC(=O)[C@@H]1CCCN1C(=O)[C@H](CC(N)=O)NC(=O)[C@H](CCC(N)=O)NC(=O)[C@H](CC(=O)O)NC(=O)[C@H](CC(=O)O)NC(=O)[C@H](C)N)C(=O)N[C@@H](CC(=O)O)C(=O)N[C@@H](CC(C)C)C(=O)N[C@@H](CC(C)C)C(=O)N[C@@H](Cc1ccccc1)C(=O)N1CCC[C@H]1C(=O)N[C@H](C(=O)N[C@@H](CC(=O)O)C(=O)N[C@H](C(=O)N[C@@H](CC(C)C)C(=O)N[C@@H](CC(C)C)C(=O)N[C@@H](CC(C)C)C(=O)N[C@@H](CC(=O)O)C(=O)N[C@@H](CC(C)C)C(=O)N[C@@H](CC(C)C)C(=O)N[C@@H](Cc1c[nH]c2ccccc12)C(=O)N[C@@H](CC(=O)O)C(=O)N[C@@H](C)C(=O)N[C@@H](CC(=O)O)C(=O)N[C@@H](CCC(=O)O)C(=O)N[C@@H](CSS[C@@H](C)COC(=O)N1CCC[C@]1(C)c1nc2c(C(N)=O)cccc2[nH]1)C(=O)NCC(=O)O)[C@@H](C)O)[C@@H](C)O [Example 52] | 1.1
7 | CC[C@H](C)[C@H](NC(=O)[C@@H]1CCCN1C(=O)[C@H](CC(N)=O)NC(=O)[C@H](CCC(N)=O)NC(=O)[C@H](CCC(=O)O)NC(=O)[C@H](C)N)C(=O)N[C@@H](Cc1ccc(O)cc1)C(=O)N[C@@H](Cc1c[nH]c2ccccc12)C(=O)N[C@@H](C)C(=O)N[C@@H](CCCNC(=N)N)C(=O)N[C@@H](Cc1ccc(O)cc1)C(=O)N[C@@H](C)C(=O)N[C@@H](CC(=O)O)C(=O)N[C@@H](Cc1c[nH]c2ccccc12)C(=O)N[C@@H](CC(C)C)C(=O)N[C@@H](Cc1ccccc1)C(=O)N[C@H](C(=O)N[C@H](C(=O)N1CCC[C@H]1C(=O)N[C@@H](CC(C)C)C(=O)N[C@@H](CC(C)C)C(=O)N[C@@H](CC(C)C)C(=O)N[C@@H](CC(C)C)C(=O)N[C@@H](CC(=O)O)C(=O)N[C@@H](CC(C)C)C(=O)N[C@@H](C)C(=O)N[C@@H](CC(C)C)C(=O)N[C@@H](CC(C)C)C(=O)N[C@H](C(=O)N[C@@H](CC(=O)O)C(=O)N[C@@H](C)C(=O)N[C@@H](CC(=O)O)C(=O)N[C@@H](CCC(=O)O)C(=O)N[C@@H](CSSCCOC(=O)N1CCC[C@]1(C)c1nc2c(C(N)=O)cccc2[nH]1)C(=O)NCC(=O)O)C(C)C)[C@@H](C)O)[C@@H](C)O [Example 53] (H-AEQNPIYWARYADWLFTTPLLLLDLALLVDADEC(X22)G-OH; N-terminus and C-terminus assumed) | 1
8 | CC[C@H](C)[C@H](NC(=O)[C@@H]1CCCN1C(=O)[C@H](CC(N)=O)NC(=O)[C@H](CCC(N)=O)NC(=O)[C@H](CCC(=O)O)NC(=O)[C@H](C)N)C(=O)N[C@@H](Cc1ccc(O)cc1)C(=O)N[C@@H](Cc1c[nH]c2ccccc12)C(=O)N[C@@H](C)C(=O)N[C@@H](CCCNC(=N)N)C(=O)N[C@@H](Cc1ccc(O)cc1)C(=O)N[C@@H](C)C(=O)N[C@@H](CC(=O)O)C(=O)N[C@@H](Cc1c[nH]c2ccccc12)C(=O)N[C@@H](CC(C)C)C(=O)N[C@@H](Cc1ccccc1)C(=O)N[C@H](C(=O)N[C@H](C(=O)N1CCC[C@H]1C(=O)N[C@@H](CC(C)C)C(=O)N[C@@H](CC(C)C)C(=O)N[C@@H](CC(C)C)C(=O)N[C@@H](CC(C)C)C(=O)N[C@@H](CC(=O)O)C(=O)N[C@@H](CC(C)C)C(=O)N[C@@H](C)C(=O)N[C@@H](CC(C)C)C(=O)N[C@@H](CC(C)C)C(=O)N[C@H](C(=O)N[C@@H](CC(=O)O)C(=O)N[C@@H](C)C(=O)N[C@@H](CC(=O)O)C(=O)N[C@@H](CCC(=O)O)C(=O)N[C@@H](CSS[C@H](C)COC(=O)N1CCC[C@]1(C)c1nc2c(C(N)=O)cccc2[nH]1)C(=O)NCC(=O)O)C(C)C)[C@@H](C)O)[C@@H](C)O [Example 54] (H-AEQNPIYWARYADWLFTTPLLLLDLALLVDADEC(X16)G-OH; N-terminus and C-terminus assumed) | 0.6
